This is an account of results in patent US20190302100A1, “METHOD FOR PREPARING LIVER PROGENITOR CELLS” (National Cancer Center, priority 2016, published 2019).

The subject of one data set is CYP3A4. As for the experimental part: On day 73 after implantation, the liver was removed and perfused. Hepatocytes were separated, and cultured for 4 days on 24-well collagen plates (manufactured by IWAKI) at 4×10^5 cells/well using 2% FBS-SHM medium.
(§1) For the hepatocytes taken out from the mice, the activity of the metabolic enzyme CYP1A2 was measured using methanol (MeOH, at a concentration of 1%) and omeprazole (OMP, 50 μM). […] The activities of these metabolic enzymes were measured with Luciferin 1A2 kit and Luciferin-IPA kit from Promega, respectively.

The test system of a further data set is CYP1A2. The experiment in a line: Activity of metabolic enzyme CYP1A2 (Luciferin 1A2 kit) in hepatocytes taken out from transplanted cDNA-uPA/SCID mice. It counts as cell-based, human.
Excerpt: After that, cDNA-uPA/SCID mice (2 to 4 M, Male; manufactured by PhoenixBio Co., Inc.) were subjected to laparotomy under isoflurane anesthesia, the spleen was exposed, 0.5×10^5 to 2×10^6 liver progenitor cells per mouse were implanted, and then the abdomen was sutured. On day 73 after implantation, the liver was removed and perfused. Hepatocytes were separated, and cultured for 4 days on 24-well collagen plates (manufactured by IWAKI) at 4×10^5 cells/well using 2% FBS-SHM medium.
as §1

For `CCC1(c2ccccc2)C(=O)NC(=O)NC1=O` [phenobarbital], the CYP3A4 induction entry with CYP3A4 is given as “induced”.
For `COc1ccc2[nH]c([S+]([O-])Cc3ncc(C)c(OC)c3C)nc2c1` (stereo not drawn) [omeprazole], the CYP1A2 induction entry in the data set on CYP1A2 (Example 14: cells from donor 10 M, omeprazole 50 μM vs methanol 1%) is given as “induced”; with CYP1A2 (Example 15: cells from donor 8 M, as in Example 14), “induced”.
